Our source for the Ki values is patent publication US20040156869A1, “2-substituted quinazolin-4-ylamine analogues” (Neurogen Corporation, priority 2002, published 2004).

Structures are written as SMILES. Bounds are passed on as bounds.

Sequence of human capsaicin receptor (VR1) (Q8NER1 whole entry): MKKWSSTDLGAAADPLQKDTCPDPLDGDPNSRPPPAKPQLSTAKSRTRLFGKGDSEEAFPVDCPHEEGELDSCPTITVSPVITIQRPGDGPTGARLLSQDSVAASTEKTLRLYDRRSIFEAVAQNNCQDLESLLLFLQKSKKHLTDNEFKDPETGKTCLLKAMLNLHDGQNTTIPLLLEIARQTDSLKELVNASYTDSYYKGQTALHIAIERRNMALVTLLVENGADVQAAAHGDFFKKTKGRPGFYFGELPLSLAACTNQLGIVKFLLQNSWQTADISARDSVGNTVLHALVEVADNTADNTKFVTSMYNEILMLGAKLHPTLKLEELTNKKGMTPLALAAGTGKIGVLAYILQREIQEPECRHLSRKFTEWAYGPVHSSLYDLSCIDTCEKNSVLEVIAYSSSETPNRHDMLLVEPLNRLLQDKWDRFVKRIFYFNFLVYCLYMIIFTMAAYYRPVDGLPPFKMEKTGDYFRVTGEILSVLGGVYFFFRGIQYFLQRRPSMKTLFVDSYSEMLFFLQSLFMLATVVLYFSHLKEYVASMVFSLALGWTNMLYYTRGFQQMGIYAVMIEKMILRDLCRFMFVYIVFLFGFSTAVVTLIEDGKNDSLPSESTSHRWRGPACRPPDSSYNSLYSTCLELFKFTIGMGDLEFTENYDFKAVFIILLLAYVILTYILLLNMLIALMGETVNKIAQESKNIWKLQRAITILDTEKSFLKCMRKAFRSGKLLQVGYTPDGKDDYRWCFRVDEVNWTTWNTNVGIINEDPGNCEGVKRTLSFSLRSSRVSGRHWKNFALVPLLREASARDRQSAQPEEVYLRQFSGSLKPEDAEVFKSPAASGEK

The assay has as its target human capsaicin receptor (VR1) (Homo sapiens, UniProt Q8NER1). As to the kind of experiment: Capsaicin receptor binding assay ([3H]RTX competition, VR1-transfected HEK293 membranes).
With `CN1CCC(COCc2nc(Nc3ccc(C(F)(F)F)cc3)c3ccc(-c4ncccc4C(F)(F)F)cc3n2)CC1` [Compound 247, [2-(1-Methyl-piperidin-4-ylmethoxymethyl)-7-(3-trifluoromethyl-pyridin-2-yl)-quinazolin-4-yl]-(4-trifluoromethyl-phenyl)-amine], the Ki (commonly a dissociation constant, usually derived from enzyme kinetics or from competition with a known ligand) was < 1000 nM.

As to `CC(C)COCc1nc(Nc2ccc(F)cc2)c2ccc(-c3ncccc3C(F)(F)F)nc2n1` [Compound 248, (4-Fluoro-phenyl)-[2-isobutoxymethyl-7-(3-trifluoromethyl-pyridin-2-yl)-pyrido[2,3-d]pyrimidin-4-yl]-amine], the Ki is < 1000 nM.

Consider `CC(C)COCc1nc(Nc2ccc(Cl)cc2)c2ccc(-c3ncccc3C(F)(F)F)nc2n1` [Compound 249, (4-Chloro-phenyl)-[2-isobutoxymethyl-7-(3-trifluoromethyl-pyridin-2-yl)-pyrido[2,3-d]pyrimidin-4-yl]-amine], for which the Ki is < 1000 nM.

For `CC(=O)c1ccc(Nc2nc(COCC(C)C)nc3nc(-c4ncccc4C(F)(F)F)ccc23)cc1` [Compound 250, 1-{4-[2-Isobutoxymethyl-7-(3-trifluoromethyl-pyridin-2-yl)-pyrido[2,3-d]pyrimidin-4-ylamino]-phenyl}-ethanone], the Ki was < 1000 nM.

As to `CCOc1ccc(Nc2nc(COCC(C)C)nc3nc(-c4ncccc4C(F)(F)F)ccc23)cc1` [Compound 251, (4-Ethoxy-phenyl)-[2-isobutoxymethyl-7-(3-trifluoromethyl-pyridin-2-yl)-pyrido[2,3-d]pyrimidin-4-yl]-amine], the Ki was < 1000 nM.

`CC(C)COCc1nc(Nc2ccc(F)c(F)c2)c2ccc(-c3ncccc3C(F)(F)F)nc2n1` [Compound 252, (3,4-Difluoro-phenyl)-[2-isobutoxymethyl-7-(3-trifluoromethyl-pyridin-2-yl)-pyrido[2,3-d]pyrimidin-4-yl]-amine]: the Ki is < 1000 nM.

On to `Cc1cc(Nc2nc(COCC(C)C)nc3nc(-c4ncccc4C(F)(F)F)ccc23)ccc1F` [Compound 253, (4-Fluoro-3-methyl-phenyl)-[2-isobutoxymethyl-7-(3-trifluoromethyl-pyridin-2-yl)-pyrido[2,3-d]pyrimidin-4-yl]-amine], for which the Ki is < 1000 nM.

Turning to `CC(C)COCc1nc(Nc2ccc(F)c(C(F)(F)F)c2)c2ccc(-c3ncccc3C(F)(F)F)nc2n1` [Compound 254, (4-Fluoro-3-trifluoromethyl-phenyl)-[2-isobutoxymethyl-7-(3-trifluoromethyl-pyridin-2-yl)-pyrido[2,3-d]pyrimidin-4-yl]-amine], the Ki is < 1000 nM.

For `CC(C)COCc1nc(Nc2ccc(Cl)c(C(F)(F)F)c2)c2ccc(-c3ncccc3C(F)(F)F)nc2n1` [Compound 255, (4-Chloro-3-trifluoromethyl-phenyl)-[2-isobutoxymethyl-7-(3-trifluoromethyl-pyridin-2-yl)-pyrido[2,3-d]pyrimidin-4-yl]-amine], the Ki is < 1000 nM.

With `COc1ccc(Nc2nc(COCC(C)C)nc3nc(-c4ncccc4C(F)(F)F)ccc23)cc1C(F)(F)F` [Compound 256, [2-Isobutoxymethyl-7-(3-trifluoromethyl-pyridin-2-yl)-pyrido[2,3-d]pyrimidin-4-yl]-(4-methoxy-3-trifluoromethyl-phenyl)-amine], the Ki is < 1000 nM.

With `Cc1ccc(Nc2nc(COCC(C)C)nc3nc(-c4ncccc4C(F)(F)F)ccc23)cc1C` [Compound 257, (3,4-Dimethyl-phenyl)-[2-isobutoxymethyl-7-(3-trifluoromethyl-pyridin-2-yl)-pyrido[2,3-d]pyrimidin-4-yl]-amine], the inhibitory constant (Ki) is < 1000 nM.

Turning to `COc1ccc(Nc2nc(COCC(C)C)nc3nc(-c4ncccc4C(F)(F)F)ccc23)cc1F` [Compound 258, (3-Fluoro-4-methoxy-phenyl)-[2-isobutoxymethyl-7-(3-trifluoromethyl-pyridin-2-yl)-pyrido[2,3-d]pyrimidin-4-yl]-amine], the Ki is < 1000 nM.

With `CC(C)COCc1nc(Nc2ccc(F)cc2)c2ccc(-c3ncccc3Cl)nc2n1` [Compound 259, [7-(3-Chloro-pyridin-2-yl)-2-isobutoxymethyl-pyrido[2,3-d]pyrimidin-4-yl]-(4-fluoro-phenyl)-amine], the inhibition constant (Ki) was < 1000 nM.

Turning to `CC(C)COCc1nc(Nc2ccc(Cl)cc2)c2ccc(-c3ncccc3Cl)nc2n1` [Compound 260, (4-Chloro-phenyl)-[7-(3-chloro-pyridin-2-yl)-2-isobutoxymethyl-pyrido[2,3-d]pyrimidin-4-yl]-amine], the Ki was < 1000 nM.

Consider `CC(C)COCc1nc(Nc2ccc(C#N)cc2)c2ccc(-c3ncccc3Cl)nc2n1` [Compound 261, 4-[7-(3-Chloro-pyridin-2-yl)-2-isobutoxymethyl-pyrido[2,3-d]pyrimidin-4-ylamino]-benzonitrile], for which the Ki was < 1000 nM.

Take `CC(=O)c1ccc(Nc2nc(COCC(C)C)nc3nc(-c4ncccc4Cl)ccc23)cc1` [Compound 262, 1-{4-[7-(3-Chloro-pyridin-2-yl)-2-isobutoxymethyl-pyrido(2,3-d]pyrimidin-4-ylamino]-phenyl}-ethanone]: the Ki was < 1000 nM.

`CC(C)COCc1nc(Nc2ccc(N3CCOCC3)cc2)c2ccc(-c3ncccc3Cl)nc2n1` [Compound 263, [7-(3-Chloro-pyridin-2-yl)-2-isobutoxymethyl-pyrido[2,3-d]pyrimidin-4-yl]-(4-morpholin-4-yl-phenyl)-amine]: the Ki was < 1000 nM.

In the case of `CCOc1ccc(Nc2nc(COCC(C)C)nc3nc(-c4ncccc4Cl)ccc23)cc1` [Compound 264, [7-(3-Chloro-pyridin-2-yl)-2-isobutoxymethyl-pyrido[2,3-d]pyrimidin-4-yl]-(4-ethoxy-phenyl)-amine], the Ki is < 1000 nM.

As to `CCc1ccc(Nc2nc(COCC(C)C)nc3nc(-c4ncccc4Cl)ccc23)cc1` [Compound 265, [7-(3-Chloro-pyridin-2-yl)-2-isobutoxymethyl-pyrido[2,3-d]pyrimidin-4-yl]-(4-ethyl-phenyl)-amine], the Ki was < 1000 nM.

On to `CCCc1ccc(Nc2nc(COCC(C)C)nc3nc(-c4ncccc4Cl)ccc23)cc1` [Compound 266, [7-(3-Chloro-pyridin-2-yl)-2-isobutoxymethyl-pyrido[2,3-d]pyrimidin-4-yl]-(4-propyl-phenyl)-amine], for which the Ki was < 1000 nM.

With `COC(=O)c1ccc(Nc2nc(COCC(C)C)nc3nc(-c4ncccc4Cl)ccc23)cc1` [Compound 267, 4-[7-(3-Chloro-pyridin-2-yl)-2-isobutoxymethyl-pyrido[2,3-d]pyrimidin-4-ylamino]-benzoic acid methyl ester], the Ki was < 1000 nM.

For `CC(C)COCc1nc(Nc2ccc(F)c(F)c2)c2ccc(-c3ncccc3Cl)nc2n1` [Compound 268, [7-(3-Chloro-pyridin-2-yl)-2-isobutoxymethyl-pyrido[2,3-d]pyrimidin-4-yl]-(3,4-difluoro-phenyl)-amine], the Ki is < 1000 nM.

Consider `Cc1cc(Nc2nc(COCC(C)C)nc3nc(-c4ncccc4Cl)ccc23)ccc1F` [Compound 269, [7-(3-Chloro-pyridin-2-yl)-2-isobutoxymethyl-pyrido[2,3-d]pyrimidin-4-yl]-(4-fluoro-3-methyl-phenyl)-amine], for which the Ki was < 1000 nM.

On to `CC(C)COCc1nc(Nc2cccc(C(F)(F)F)c2)c2ccc(-c3ncccc3C(F)(F)F)nc2n1` [Compound 270, [2-Isobutoxymethyl-7-(3-trifluoromethyl-pyridin-2-yl)-pyrido[2,3-d]pyrimidin-4-yl]-(3-trifluoromethyl-phenyl)-amine], for which the Ki was < 1000 nM.

In the case of `CC(C)COCc1nc(Nc2cccc(Cl)c2)c2ccc(-c3ncccc3C(F)(F)F)nc2n1` [Compound 271, (3-Chloro-phenyl)-[2-isobutoxymethyl-7-(3-trifluoromethyl-pyridin-2-yl)-pyrido[2,3-d]pyrimidin-4-yl]-amine], the Ki was < 1000 nM.

As for `CC(C)COCc1nc(Nc2ccc(C#N)cc2)c2ccc(-c3ncccc3C(F)(F)F)nc2n1` [Compound 272, 4-[2-Isobutoxymethyl-7-(3-trifluoromethyl-pyridin-2-yl)-pyrido[2,3-d]pyrimidin-4-ylamino]-benzonitrile], the Ki is < 1000 nM.

As for `CC(C)COCc1nc(Nc2ccc(Cl)c(F)c2)c2ccc(-c3ncccc3C(F)(F)F)nc2n1` [Compound 273, (4-Chloro-3-fluoro-phenyl)-[2-isobutoxymethyl-7-(3-trifluoromethyl-pyridin-2-yl)-pyrido[2,3-d]pyrimidin-4-yl]-amine], the Ki is < 1000 nM.

As to `Cc1cc(Nc2nc(COCC(C)C)nc3nc(-c4ncccc4C(F)(F)F)ccc23)ccc1Cl` [Compound 274, (4-Chloro-3-methyl-phenyl)-[2-isobutoxymethyl-7-(3-trifluoromethyl-pyridin-2-yl)-pyrido[2,3-d]pyrimidin-4-yl]-amine], the Ki was < 1000 nM.

Take `CC(C)COCc1nc(Nc2ccc(F)c(Cl)c2)c2ccc(-c3ncccc3C(F)(F)F)nc2n1` [Compound 275, (3-Chloro-4-fluoro-phenyl)-[2-isobutoxymethyl-7-(3-trifluoromethyl-pyridin-2-yl)-pyrido[2,3-d]pyrimidin-4-yl]-amine]: the Ki is < 1000 nM.

Regarding `Cc1ccc(Nc2nc(COCC(C)C)nc3nc(-c4ncccc4C(F)(F)F)ccc23)cc1C(F)(F)F` [Compound 276, [2-Isobutoxymethyl-7-(3-trifluoromethyl-pyridin-2-yl)-pyrido[2,3-d]pyrimidin-4-yl]-(4-methyl-3-trifluoromethyl-phenyl)-amine], the Ki is < 1000 nM.

On to `CC(C)COCc1nc(Nc2ccc(CO)cc2)c2ccc(-c3ncccc3Cl)nc2n1` [Compound 277, {4-[7-(3-Chloro-pyridin-2-yl)-2-isobutoxymethyl-pyrido[2,3-d]pyrimidin-4-ylamino]-phenyl}-methanol], for which the Ki is < 1000 nM.

With `CCCCOc1ccc(Nc2nc(COCC(C)C)nc3nc(-c4ncccc4Cl)ccc23)cc1` [Compound 278, (4-Butoxy-phenyl)-[7-(3-chloro-pyridin-2-yl)-2-isobutoxymethyl-pyrido[2,3-d]pyrimidin-4-yl]-amine], the Ki was < 1000 nM.

For `CC(C)OCc1nc(Nc2ccc(S(N)(=O)=O)cc2)c2ccc(-c3ncccc3Cl)nc2n1` [Compound 279, 4-{7-(3-Chloro-pyridin-2-yl)-2-isopropoxymethyl-pyrido[2,3-d]pyrimidin-4-ylamino]-benzenesulfonamide], the Ki is < 1000 nM.
